Measurements from ChEMBL document CHEMBL2074450 (J Pharmacol Exp Ther, 2002).

Biological target: ATP-dependent translocase ABCB1 (Homo sapiens, UniProt P08183)
Assay: TP_TRANSPORTER: transepithelial transport (basal to apical) in HCT-8 cells
Format: functional, cell-based

ATP-dependent translocase ABCB1, sequence (P08183 whole entry): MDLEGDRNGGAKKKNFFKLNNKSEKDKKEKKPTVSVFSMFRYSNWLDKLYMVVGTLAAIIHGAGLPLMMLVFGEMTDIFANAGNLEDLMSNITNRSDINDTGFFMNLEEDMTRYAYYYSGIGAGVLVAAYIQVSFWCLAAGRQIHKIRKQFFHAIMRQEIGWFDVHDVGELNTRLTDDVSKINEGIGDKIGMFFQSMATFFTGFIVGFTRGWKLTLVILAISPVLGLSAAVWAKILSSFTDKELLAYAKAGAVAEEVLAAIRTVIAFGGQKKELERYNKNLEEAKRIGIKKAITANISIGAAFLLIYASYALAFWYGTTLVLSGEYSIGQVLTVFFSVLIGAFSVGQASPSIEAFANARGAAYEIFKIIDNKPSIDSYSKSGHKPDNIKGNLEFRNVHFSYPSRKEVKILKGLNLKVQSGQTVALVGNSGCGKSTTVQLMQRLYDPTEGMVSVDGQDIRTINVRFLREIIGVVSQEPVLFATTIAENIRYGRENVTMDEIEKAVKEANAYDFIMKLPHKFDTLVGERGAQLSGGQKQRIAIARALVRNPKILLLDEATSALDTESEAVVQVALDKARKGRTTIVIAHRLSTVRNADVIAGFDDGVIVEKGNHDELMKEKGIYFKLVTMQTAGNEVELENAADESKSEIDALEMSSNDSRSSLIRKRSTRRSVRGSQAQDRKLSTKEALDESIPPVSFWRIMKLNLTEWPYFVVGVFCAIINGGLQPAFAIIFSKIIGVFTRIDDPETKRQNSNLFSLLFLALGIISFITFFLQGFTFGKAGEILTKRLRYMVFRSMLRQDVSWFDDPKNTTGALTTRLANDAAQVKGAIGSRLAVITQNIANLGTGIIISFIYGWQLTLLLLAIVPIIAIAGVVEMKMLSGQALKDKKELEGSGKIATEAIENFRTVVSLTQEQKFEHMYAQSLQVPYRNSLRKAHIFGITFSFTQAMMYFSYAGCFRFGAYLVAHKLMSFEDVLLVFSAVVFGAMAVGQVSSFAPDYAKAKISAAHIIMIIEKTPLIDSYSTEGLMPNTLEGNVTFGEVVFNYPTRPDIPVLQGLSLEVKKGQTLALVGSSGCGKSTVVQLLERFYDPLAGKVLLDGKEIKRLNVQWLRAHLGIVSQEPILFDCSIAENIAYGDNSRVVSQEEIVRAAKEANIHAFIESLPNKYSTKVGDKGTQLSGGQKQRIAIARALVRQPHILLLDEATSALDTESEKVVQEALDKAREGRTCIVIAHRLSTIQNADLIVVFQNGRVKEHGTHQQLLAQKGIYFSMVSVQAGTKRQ

Activity: is not a substrate [-]
Structure (SMILES): CO[C@H]1C[C@@H]2CC[C@@H](C)[C@@](O)(O2)C(=O)C(=O)N2CCCC[C@H]2C(=O)O[C@H]([C@H](C)C[C@@H]2CC[C@@H](O)[C@H](OC)C2)CC(=O)[C@H](C)/C=C(\C)[C@@H](O)[C@@H](OC)C(=O)[C@H](C)C[C@H](C)/C=C/C=C/C=C/1C [SIROLIMUS]
